Each structure is given as a SMILES string.

The target in this assay is T1, Human orexin receptor type 2 (Homo sapiens, UniProt O43614).
T1 sequence (O43614 1-444): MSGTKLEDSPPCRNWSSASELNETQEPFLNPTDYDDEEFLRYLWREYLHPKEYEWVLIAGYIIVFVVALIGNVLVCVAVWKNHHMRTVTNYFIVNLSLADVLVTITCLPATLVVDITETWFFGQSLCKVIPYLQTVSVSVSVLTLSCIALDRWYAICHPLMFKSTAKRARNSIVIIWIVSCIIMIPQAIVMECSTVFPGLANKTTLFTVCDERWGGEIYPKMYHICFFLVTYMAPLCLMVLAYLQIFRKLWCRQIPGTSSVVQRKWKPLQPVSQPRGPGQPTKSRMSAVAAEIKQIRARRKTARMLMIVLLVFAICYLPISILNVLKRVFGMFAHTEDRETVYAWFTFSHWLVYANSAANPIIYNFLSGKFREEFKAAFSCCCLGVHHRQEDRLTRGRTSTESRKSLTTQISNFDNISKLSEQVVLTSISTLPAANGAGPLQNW
Briefly: Test Example 1: agonist activity for orexin receptor type 2 (aequorin luminescence, intracellular calcium mobilization). The note with it: compound 10 μm; CHO cells transiently expressing human orexin receptor type 2 and apoaequorin; relative percentage of luminescence for the luminescence (100%) of Orexin A (100 μM).
Method: Human orexin receptor type 2 and apoaequorin were transiently expressed in CHO cells, and the agonist activity was evaluated based on intracellular calcium mobilization with ligand stimulation. The CHO cells transiently-expressed human orexin receptor type 2 and apoaequorin were seeded on a 384-well plate by 2,000 cells/well, and then incubated for 16-22 hours. After the plate was returned to room temperature, Coelenterazine hcp (final concentration: 1 μM) was added to the plate, and the plate was allowed to stand at room temperature for 2 hours. And then, Orexin A or each test compound was added to the plate, and the luminescence of the cells was measured with FDSS7000 (Hamamatsu Photonics K. K.), wherein Orexin A and each test compound were dissolved in DMSO (final concentration: 0.1%), and diluted with a buffer (Hanks, 20 mM HEPES, 0.1% BSA). The agonist activity of each test compound for orexin receptor type 2 was calculated as relative percentage of luminescence for the luminescence (100%) of Orexin A (100 μM).
On to `CC(C)N1CCN(c2cccc(F)c2NC(=S)N2CCC(C)(c3noc(C4CC4)n3)CC2)CC1` [Example 57, 4-(5-cyclopropyl-1,2,4-oxadiazol-3-yl)-N-{2-fluoro-6-[4-(propan-2-yl)piperazin-1-yl]phenyl}-4-methylpiperidine-1-carbothioamide], for which the “Agonist Activity (%)” value came out at 171%.

With `Cc1ccc(C2CCN(C(=O)Nc3c(F)cccc3-c3cnn(C4CC4)c3)CC2)cc1` [Example 58, N-[2-(1-cyclopropyl-1H-pyrazol-4-yl)-6-fluoro-phenyl]-4-(4-methylphenyl)piperidine-1-carboxamide], the “Agonist Activity (%)” value was 71%.

In the case of `COc1cccc(CN2CCN(C(C)C)CC2)c1NC(=O)N1CCC(c2ccc(C)cc2)CC1` [Example 63, N-(2-methoxy-6-{[4-(propan-2-yl)piperazin-1-yl]methyl}phenyl)-4-(4-methylphenyl)piperidine-1-carboxamide], the “Agonist Activity (%)” value stood at 26%.

In the case of `CC(C)c1ncc(-c2cccc(F)c2NC(=O)N2CCC(C)(c3noc(C4CC4)n3)CC2)cn1` [Example 72, 4-(5-cyclopropyl-1,2,4-oxadiazol-3-yl)-N-{2-fluoro-6-[2-(propan-2-yl)pyrimidin-5-yl]phenyl}-4-methylpiperidine-1-carboxamide], the “Agonist Activity (%)” value came to 144%.

As for `CC(C)N1CCN(c2cccc(Br)c2NC(=O)N2CCC(C)(c3noc(C4CC4)n3)CC2)CC1` [Example 88, N-{2-bromo-6-[4-(propan-2-yl)piperazin-1-yl]phenyl}-4-(5-cyclopropyl-1,2,4-oxadiazol-3-yl)-4-methylpiperidine-1-carboxamide], the “Agonist Activity (%)” value is reported as 161%.

Regarding `Cc1ccc(C2CCN(C(=O)Nc3c(F)cccc3C3=CCN(C(CF)CF)CC3)CC2)cc1` [Example 136, N-{2-[1-(1,3-difluoropropan-2-yl)-1,2,3,6-tetrahydropyridin-4-yl]-6-fluorophenyl}-4-(4-methylphenyl)piperidine-1-carboxamide], the “Agonist Activity (%)” value is recorded as 105%.

With `CC(C)N1CCN(c2ccccc2NC(=O)N2CCC(C)(c3nc(-c4cccnc4)no3)CC2)CC1` [Example 13, 4-methyl-N-{2-[4-(propan-2-yl)piperazin-1-yl]phenyl}-4-[3-(pyridin-3-yl)-1,2,4-oxadiazol-5-yl]piperidine-1-carboxamide], the “Agonist Activity (%)” value is recorded as 99%.

On to `Cc1ccc(C2(C)CCN(C(=O)Nc3c(Cl)cccc3C3=CCN(C(C)C)CC3)CC2)cc1` [Example 147, N-{2-chloro-6-[1-(propan-2-yl)-1,2,3,6-tetrahydropyridin-4-yl]phenyl}-4-methyl-4-(4-methylphenyl)piperidine-1-carboxamide], for which the “Agonist Activity (%)” value worked out at 167%.

For `CC(C)c1ccc(-c2cccc(F)c2NC(=O)N2CCC(C)(c3noc(C4CC4)n3)CC2)cn1` [Example 60, 4-(5-cyclopropyl-1,2,4-oxadiazol-3-yl)-N-{2-fluoro-6-[6-(propan-2-yl)pyridin-3-yl]phenyl}-4-methylpiperidine-1-carboxamide], the “Agonist Activity (%)” value was 102%.

`CC(C)N1CC=C(c2cccc(Cl)c2NC(=O)N2CCC(C)(C#N)CC2)CC1` [Example 158, N-{2-chloro-6-[1-(propan-2-yl)-1,2,3,6-tetrahydropyridin-4-yl]phenyl}-4-cyano-4-methylpiperidine-1-carboxamide]: the “Agonist Activity (%)” value turned out to be 133%.

Consider `CCN1CCN(c2ccccc2NC(=O)N2CCC(C)(c3ccccc3)CC2)CC1.Cl` [Example 4, N-[2-(4-ethylpiperazin-1-yl)phenyl]-4-methyl-4-phenylpiperidine-1-carboxamide hydrochloride], for which the “Agonist Activity (%)” value is listed as 125%.

On to `CC(C)N1CCN(c2cccc(Cl)c2NC(=O)N2CCC(C)(c3nc4ccccc4o3)CC2)CC1` [Example 66, 4-(1,3-benzoxazol-2-yl)-N-{2-chloro-6-[4-(propan-2-yl)piperazin-1-yl]phenyl}-4-methylpiperidine-1-carboxamide], for which the “Agonist Activity (%)” value is 129%.

Take `CC(C)N1CCN(c2cccc(Cl)c2NC(=O)N2CCC(C)(c3noc(C4CC4(F)F)n3)CC2)CC1` (stereo not shown) [Example 114, N-{2-chloro-6-[4-(propan-2-yl)piperazin-1-yl]phenyl}-4-[5-(2,2-difluorocyclopropyl)-1,2,4-oxadiazol-3-yl]-4-methylpiperidine-1-carboxamide]: the “Agonist Activity (%)” value is 155%.

Turning to `CC1(C#N)CCN(C(=O)Nc2c(Cl)cccc2C2=CCN(C3CCC3)CC2)CC1` [Example 159, N-[2-chloro-6-(1-cyclobutyl-1,2,3,6-tetrahydropyridin-4-yl)phenyl]-4-cyano-4-methylpiperidine-1-carboxamide], the “Agonist Activity (%)” value came out at 150%.

Turning to `Cc1ccc(C2CCN(C(=S)Nc3c(F)cccc3N3CCN(C(C)C)CC3)CC2)cc1` [Example 64, N-{2-fluoro-6-[4-(propan-2-yl)piperazin-1-yl]phenyl}-4-(4-methylphenyl)piperidine-1-carbothioamide], the “Agonist Activity (%)” value is on record as 140%.

Consider `CC(C)N1CCN(c2cccc(Cl)c2NC(=O)N2CCC(C)(c3noc(C4CC4(C)C)n3)CC2)CC1` (stereo not shown) [Example 106, N-{2-chloro-6-[4-(propan-2-yl)piperazin-1-yl]phenyl}-4-[5-(2,2-dimethylcyclopropyl)-1,2,4-oxadiazol-3-yl]-4-methylpiperidine-1-carboxamide], for which the “Agonist Activity (%)” value was 185%.

As to `Cc1ccc(C2CCN(C(=O)Nc3c(Cl)cccc3C3CCN(C(C)C)CC3)CC2)cc1` [Example 133, N-{2-chloro-6-[1-(propan-2-yl)piperidin-4-yl]phenyl}-4-(4-methylphenyl)piperidine-1-carboxamide], the “Agonist Activity (%)” value amounted to 156%.

Consider `Cc1ccc(N2CCCN(C(=O)Nc3c(Cl)cccc3N3CCN(C(C)C)CC3)CC2)cc1` [Example 99, N-{2-chloro-6-[4-(propan-2-yl)piperazin-1-yl]phenyl}-4-(4-methylphenyl)-1,4-diazepane-1-carboxamide], for which the “Agonist Activity (%)” value came to 75%.

Take `CC1(c2noc(C3CC3)n2)CCN(C(=O)Nc2c(F)cccc2C2=CCOCC2)CC1` [Example 56, 4-(5-cyclopropyl-1,2,4-oxadiazol-3-yl)-N-[2-(3,6-dihydro-2H-pyran-4-yl)-6-fluorophenyl]-4-methylpiperidine-1-carboxamide]: the “Agonist Activity (%)” value is reported as 44%.

Regarding `COc1cccc(N2CCN(C(C)C)CC2)c1NC(=O)N1CCC(c2ccc(C(F)(F)F)cc2)CC1` [Example 15, N-{2-methoxy-6-[4-(propan-2-yl)piperazin-1-yl]phenyl}-4-[4-(trifluoromethyl)phenyl]piperidine-1-carboxamide], the “Agonist Activity (%)” value was 101%.

`CC(C)N1CCC(c2cccc(F)c2NC(=O)N2CCC(C)(c3noc(C4CC4)n3)CC2)CC1` [Example 43, 4-(5-cyclopropyl-1,2,4-oxadiazol-3-yl)-N-{2-fluoro-6-[1-(propan-2-yl)piperidin-4-yl]phenyl}-4-methylpiperidine-1-carboxamide]: the “Agonist Activity (%)” value was 135%.

As for `Cc1ccc(C2CCN(C(=O)Nc3c(F)cccc3N3C[C@@H]4C[C@H]3CN4C(C)C)CC2)cc1` [Example 150, N-{2-fluoro-6-[(1S,4S)-5-(propan-2-yl)-2,5-diazabicyclo[2.2.1]heptan-2-yl]phenyl}-4-(4-methylphenyl)piperidine-1-carboxamide], the “Agonist Activity (%)” value was found to be 116%.

Turning to `CCN1CCN(c2ccccc2NC(=O)N2CCC(c3nc4ccccc4o3)CC2)CC1` [Example 2, 4-(1,3-benzoxazol-2-yl)-N-[2-(4-ethylpiperazin-1-yl)phenyl]piperidine-1-carboxamide], the “Agonist Activity (%)” value is 35%.

Turning to `CC1(c2noc(C3CC3)n2)CCN(C(=O)Nc2c(Cl)cccc2N2CCN(C(C)(C)C)CC2)CC1` [Example 100, N-[2-(4-tert-butylpiperazin-1-yl)-6-chlorophenyl]-4-(5-cyclopropyl-1,2,4-oxadiazol-3-yl)-4-methylpiperidine-1-carboxamide], the “Agonist Activity (%)” value is 160%.

Regarding `CC1(c2noc(C3CC3)n2)CCN(C(=O)Nc2c(Cl)cccc2N2CCN(C3CC3)CC2)CC1` [Example 113, N-[2-chloro-6-(4-cyclopropylpiperazin-1-yl)phenyl]-4-(5-cyclopropyl-1,2,4-oxadiazol-3-yl)-4-methylpiperidine-1-carboxamide], the “Agonist Activity (%)” value was 157%.

As to `CC(C)N1CCN(c2cccc(Cl)c2NC(=O)N2CCC(C)(c3noc(C(F)(F)F)n3)CC2)CC1` [Example 86, N-{2-chloro-6-[4-(propan-2-yl)piperazin-1-yl]phenyl}-4-methyl-4-[5-(trifluoromethyl)-1,2,4-oxadiazol-3-yl]piperidine-1-carboxamide], the “Agonist Activity (%)” value was determined as 138%.

As to `Cc1ccc(C2CCN(C(=O)Nc3c(F)cccc3C3CCN(C(C)C)CC3)CC2)cc1` [Example 39, N-{2-fluoro-6-[1-(propan-2-yl)piperidin-4-yl]phenyl}-4-(4-methylphenyl)piperidine-1-carboxamide], the “Agonist Activity (%)” value is listed as 106%.

With `CC(C)N1CCC(c2cccc(F)c2NC(=O)N2CCC(C)(c3cc(C4CC4)on3)CC2)CC1` [Example 53, 4-(5-cyclopropyl-1,2-oxazol-3-yl)-N-{2-fluoro-6-[1-(propan-2-yl)piperidin-4-yl]phenyl}-4-methylpiperidine-1-carboxamide], the “Agonist Activity (%)” value came out at 140%.

For the origin of these results see patent US20240308960A1 (Sumitomo Pharma Co., Ltd., priority 2021, published 2024).
